Square brackets hold non-standard residues; d marks the D form. Peptide text beside a SMILES is read from it. * marks the point of attachment. Dolaproine = CO[C@@H]([C@@H]1CCCN1)[C@@H](C)C(=O)O; Dil = CC[C@H](C)[C@H](NC)[C@@H](CC(=O)O)OC; X1 = C[C@@H](N*)[C@@H](O)c1ccccc1; NMeV = CN[C@H](C(=O)O)C(C)C
Key:
Type in all cases: cell-based
[1] = test system: HT-29 (colorectal cancer) cells; assay: Cytotoxicity testing of compounds (cell titer-Glo)
Protocol: (§1) They were then incubated at 37° C., 5% CO2 for overnight. […] After 5 days, 30 μL cell titer-Glo Luminescent buffer was added to each well and the plate was incubated for 20 min at room temperature. Luminescence signal was detected by the Envison microplatereader.

MDA-MB-468 (TNBC) cells = assay: Cytotoxicity testing of compounds (cell titer-Glo)
Protocol: as §1

A549, a NSCLC cell line = assay: Cytotoxicity testing of compounds (cell titer-Glo), second round; conditions: A549, second round (Table 2)
Protocol: (§2) HT-29 (colorectal cancer) and MDA-MB-468 (TNBC) cells were harvested and seeded with 3000 cell per well into 96-well cell culture plates respectively. They were then incubated at 37° C., 5% CO2 for overnight. Each compound was diluted 3-fold from 500 nM, and added to each well respectively. After 5 days, 30 μL cell titer-Glo Luminescent buffer was added to each well and the plate was incubated for 20 min at room temperature. Luminescence signal was detected by the Envison microplatereader.
(§3) In a second round of testing, C-2a and C-2b, along with 6 other compounds (C-1a, C-1b, C-3a, C-3b, C-5a, and C-4a) were tested with the same cell lines plus A549, a NSCLC cell line.

[2] = test system: HT-29, MDA-MB-468 and A549 cells; assay: Cytotoxicity testing of compounds, text statements over the cell lines; conditions: first round; HT-29 and MDA-MB-468
Protocol: as §2, §3

[3] = Cytotoxicity testing of compounds (cell titer-Glo), second round; conditions: human
Protocol: as §2, §3

[4] = Cytotoxicity testing of compounds (cell titer-Glo); conditions: human, Min cell viability
Protocol: as §1

[5] = HT29, first round (Table 1), 5 days
[6] = Homo sapiens, second round (Table 2)
[7] = Homo sapiens, HT-29, HT29, second round (Table 2)
[8] = Homo sapiens, HT-29, 120 h, HT29, first round (Table 1), 5 days
[9] = Homo sapiens, 120 h, first round (Table 1), 5 days

## CC[C@H](C)[C@@H]([C@@H](CC(=O)N1CCC[C@H]1[C@H](OC)[C@@H](C)C(=O)N[C@H](C)[C@@H](O)c1ccccc1)OC)N(C)C(=O)[C@@H](NC(=O)[C@@H](NC)C(C)C)C(C)C [MMAE, reference compound] (H-[NMeV]V[Dil][Dolaproine]-X1)
[1]; [5]
  IC50: ~0.5 nM
  Min cell viability: 21.3
[1]; HT29, second round (Table 2)
  IC50: 1.1 nM
  Min cell viability: 35.5
MDA-MB-468 (TNBC) cells; first round (Table 1), 5 days
  IC50: 0.1 nM
  Min cell viability: 4.6
MDA-MB-468 (TNBC) cells; second round (Table 2)
  IC50: 0.3 nM
  Min cell viability: 6.3
A549, a NSCLC cell line
  IC50: 2 nM
[2]
  inhibition of cells proliferation: inhibited cells proliferation in a concentration-dependent manner

## CC[C@@]1(O)C(=O)OCc2c1cc1n(c2=O)Cc2c-1nc1cc(F)c(C(C)C)c3c1c2[C@@H](N)CC3 [Compound C-3b]
MDA-MB-468 (TNBC) cells; [6]
  IC50: 17.6 nM
[3]
  viability at 5 days: 30.6%
A549, a NSCLC cell line; Homo sapiens
  IC50: 114 nM

## CC[C@@]1(O)C(=O)OCc2c1cc1n(c2=O)Cc2c-1nc1cc(F)c(C(C)C)c3c1c2[C@H](N)CC3 [Compound C-3a]
[1]; [7]
  IC50: 76.6 nM
MDA-MB-468 (TNBC) cells; [6]
  IC50: 8.8 nM
[3]
  viability at 5 days: 23.8%
A549, a NSCLC cell line; Homo sapiens
  IC50: 36.6 nM

## CC[C@@]1(O)C(=O)OCc2c1cc1n(c2=O)Cc2c-1nc1cc(F)c(C)c3c1c2[C@@H](NC(=O)CO)CC3 [DXD, reference compound]
[1]; [5]
  IC50: 25.2 nM
  Min cell viability: 4.0
[1]; HT29, second round (Table 2)
  IC50: 105 nM
  Min cell viability: 11.4
MDA-MB-468 (TNBC) cells; first round (Table 1), 5 days
  IC50: 3.2 nM
  Min cell viability: 1.2
MDA-MB-468 (TNBC) cells; second round (Table 2)
  IC50: 4.2 nM
  Min cell viability: 4.1
A549, a NSCLC cell line
  IC50: 126 nM
  Min cell viability: 28.4
[2]
  inhibition of cells proliferation: inhibited cells proliferation in a concentration-dependent manner

## CCc1c(F)cc2nc3c(c4c2c1CC[C@H]4N)Cn1c-3cc2c(c1=O)COC(=O)[C@]2(O)CC [Compound C-2a]
[4]
  viability at 5 days: 4.6%
[1]; [8]
  IC50: 5.7 nM
[1]; [7]
  IC50: 40.1 nM
[1]; human, 5 days
  Min cell viability: 4.8
MDA-MB-468 (TNBC) cells; [9]
  IC50: 1.6 nM
MDA-MB-468 (TNBC) cells; [6]
  IC50: 5.6 nM
[3]
  viability at 5 days: 19.7%
A549, a NSCLC cell line; Homo sapiens
  IC50: 18.9 nM
[2]
  inhibition of cells proliferation: inhibited cells proliferation in a concentration-dependent manner

## CCc1c(F)cc2nc3c(c4c2c1CC[C@@H]4N)Cn1c-3cc2c(c1=O)COC(=O)[C@]2(O)CC [Compound C-2b]
[4]
  viability at 5 days: 1.9%
[1]; [8]
  IC50: 5.6 nM
[1]; [7]
  IC50: ~52.7 nM
[1]; human, 5 days
  Min cell viability: 3.7
MDA-MB-468 (TNBC) cells; [9]
  IC50: 1 nM
MDA-MB-468 (TNBC) cells; [6]
  IC50: 5.2 nM
[3]
  viability at 5 days: 23.6%
A549, a NSCLC cell line; Homo sapiens
  IC50: 24.2 nM
[2]
  inhibition of cells proliferation: inhibited cells proliferation in a concentration-dependent manner

## CC[C@@]1(O)C(=O)OCc2c1cc1n(c2=O)Cc2c-1nc1cc(F)c(C)c3c1c2CC[C@@H]3N [Compound C-1a]
[1]; [7]
  IC50: 21.1 nM
MDA-MB-468 (TNBC) cells; [6]
  IC50: 3.6 nM
[3]
  viability at 5 days: 20.3%
A549, a NSCLC cell line; Homo sapiens
  IC50: 16.6 nM

## CC[C@@]1(O)C(=O)OCc2c1cc1n(c2=O)Cc2c-1nc1cc(F)c(C)c3c1c2[C@H](Nc1cccc(CN)c1)CC3 [Compound C-4a]
MDA-MB-468 (TNBC) cells; [6]
  IC50: 115 nM
[3]
  viability at 5 days: 83%

## CC[C@@]1(O)C(=O)OCc2c1cc1n(c2=O)Cc2c-1nc1cc(F)c(C)c3c1c2CC[C@H]3N [Compound C-1b]
[1]; [7]
  IC50: 18.5 nM
MDA-MB-468 (TNBC) cells; [6]
  IC50: 3.1 nM
[3]
  viability at 5 days: 14.5%
A549, a NSCLC cell line; Homo sapiens
  IC50: 13.7 nM

## CC[C@@]1(O)C(=O)OCc2c1cc1n(c2=O)Cc2c-1nc1cc(F)c(C)c3c1c2CC(N)C3 (mixture of isomers) [Compound C-5a]
[1]; [7]
  IC50: 26.6 nM
MDA-MB-468 (TNBC) cells; [6]
  IC50: 2.4 nM
[3]
  viability at 5 days: 19.4%
A549, a NSCLC cell line; Homo sapiens
  IC50: 22 nM
